What was measured:
[1] = Plasma pharmacokinetics of radioactivity after single intravenous dose; assay type: in vivo, male Sprague Dawley rats; conditions: 10 mg/kg single intravenous (bolus)
Excerpt: (§1) The objectives of this study were to determine the plasma pharmacokinetics of [4-^14C]-25HC3S-derived radioactivity in male Sprague Dawley rats, determine the routes of elimination and excretion mass balance of [4-^14C]-25HC3S-derived radioactivity in male Sprague Dawley rats, determine the tissue distribution and tissue pharmacokinetics of [4-^14C]-25HC3S-derived radioactivity using quantitative whole body autoradiography methods in male Sprague Dawley and Long Evans rats following a single intravenous (bolus) dose, and to provide plasma, urine, and fecal homogenate samples for metabolite profiling of [4-^14C]-25HC3S-derived radioactivity.
(§2) Nine male Sprague Dawley rats (Group 1) were designated for the pharmacokinetic phase, 3 male Sprague Dawley rats (Group 2) for the excretion mass balance phase, and 7 male Sprague Dawley rats (Group 3) and 9 male Long Evans rats (Group 4) for the tissue distribution phase. All animals received a single intravenous dose of [^14C]-25HC3S at 10 mg/kg and a target radioactivity of 225 μCi/kg. Blood samples were collected from all Group 1 animals at approximately 0.083, 0.25, 0.5, 1, 2, 4, 8, 12, 24, 48, and 72 hours post-dose. Urine and feces were collected from all Group 2 animals periodically through 168 hours post-dose. […] Following blood collection, animals were euthanized by CO2 inhalation and carcasses frozen in a dry ice/hexane bath for processing by quantitative whole body autoradiography. Whole blood, plasma, urine, feces, cage rinse, and cage wash were analyzed for total radioactivity by liquid scintillation counting.

[2] = Excretion mass balance after single intravenous dose; assay type: in vivo, male Sprague Dawley rats; conditions: 10 mg/kg intravenous, over 168 hours
Excerpt: as §1
as §2, with “μCi/kg.” for “μCi/kg. Blood samples were collected from all Group 1 animals at approximately 0.083, 0.25, 0.5, 1, 2, 4, 8, 12, 24, 48, and 72 hours post-dose. Urine and feces were collected from all Group 2 animals periodically through 168 hours post-dose.”

[3] = Tissue distribution by quantitative whole body autoradiography after single intravenous dose; assay type: in vivo, male Sprague Dawley rats; conditions: 10 mg/kg intravenous
Excerpt: as §1, §2

[4] = Tissue distribution by quantitative whole body autoradiography after single intravenous dose, pigmented rats; assay type: in vivo, male Long Evans rats; conditions: 10 mg/kg intravenous
Excerpt: as §1
as §2, with “μCi/kg.” for “μCi/kg. Blood samples were collected from all Group 1 animals at approximately 0.083, 0.25, 0.5, 1, 2, 4, 8, 12, 24, 48, and 72 hours post-dose. Urine and feces were collected from all Group 2 animals periodically through 168 hours post-dose.”

[5] = Metabolite profiling of plasma, urine and feces after intravenous dose; assay type: in vivo, male Sprague Dawley rats; conditions: intravenous 10 mg/kg
Procedure: as §2

[6] = Metabolite profiling of plasma and feces after oral dose; assay type: in vivo, rats; conditions: 75 mg/kg oral
Excerpt: Radiolabeled components in plasma and feces extracts were profiled and identified using radio-high performance liquid chromatography (HPLC) and high performance liquid chromatography/mass spectrometry (HPLC/MS) methods.

[7] = Single oral dose safety and pharmacokinetic study in NASH and healthy subjects; assay type: in vivo, human
Procedure: The present Example was a randomized, dose ranging, single dose safety and pharmacokinetic study of 25HC3S administered to subjects with NASH and control healthy subjects. […] For each cohort, 10 subjects with NASH were enrolled which were further classified into cirrhotic and non-cirrhotic. Each subject received only one dose of study treatment. The second cohort was dosed after a review of safety and tolerability data from Cohort 1.

[8] = Plasma pharmacokinetics of radioactivity after single oral (gavage) dose; assay type: in vivo, rats; conditions: 75 mg/kg single oral (gavage)
[9] = Excretion mass balance after single oral (gavage) dose; assay type: in vivo, rats; conditions: 75 mg/kg single oral (gavage)
[10] = Tissue distribution by quantitative whole body autoradiography after single oral (gavage) dose; assay type: in vivo, male Sprague Dawley rats; conditions: 75 mg/kg oral
[11] = 50 mg single oral dose, Healthy, Geometric Mean
[12] = 50 mg single oral dose, Healthy, Mean
[13] = 50 mg single oral dose, NASH, Geometric Mean
[14] = 50 mg single oral dose, NASH, Mean
[15] = 200 mg single oral dose, Healthy, Geometric Mean
[16] = 200 mg single oral dose, Healthy, Mean
[17] = 200 mg single oral dose, NASH, Geometric Mean
[18] = 200 mg single oral dose, NASH, Mean

Molecule: C[C@H](CCCC(C)(C)O)[C@H]1CC[C@H]2[C@@H]3CC=C4[14CH2][C@@H](OS(=O)(=O)O)CC[C@]4(C)[C@H]3CC[C@]12C [[4-^14C]-25HC3S]
- terminal elimination phase T1/2 ([1]; plasma, PK phase): 26.6 h
- mean plasma C0 ([1]; total radioactivity): 25,900 ng-equiv./g
- plasma AUClast ([1]; total radioactivity): 27,900 h*ng-equiv./g
- dose recovered in urine, feces, and cage rinse [2]: approximately 100.2%
- recovered radioactivity in feces [2]: 83.0%
- plasma:whole blood AUClast ratio [3]: 0.79
- tissue distribution by QWBA [3]: broadly distributed and detected by quantitative whole body autoradiography in all tissues except the eye (lens)
- whole blood AUClast ([3]; Group 3): 25,200 h*ng-equiv./g
- T1/2 in plasma ([3]; QWBA phase): 44.3 h
- T1/2 in whole blood ([3]; QWBA phase): 52.2 h
- maximum plasma concentration ([3]; QWBA phase): 12,400 ng-equiv./g
- tissue:plasma ratio, liver ([3]; calculated using AUClast): 11.4
- tissue:plasma ratio, small intestine (wall) ([3]; calculated using AUClast): 7.44
- AUClast in liver ([3]; radioactivity): ≤ 364,000 hng/g
- binding to pigmented or non-pigmented skin or the uveal tract [4]: no difference
- plasma or whole blood concentrations versus Sprague Dawley rats ([4]; first 168 hours postdose): no substantial difference

Molecule: C[C@H](CCCC(C)(C)O)[C@H]1CC[C@H]2[C@@H]3CC=C4C[C@@H](O)CC[C@]4(C)[C@H]3CC[C@]12C [M29, 25-hydroxycholesterol]
- detection in plasma, urine, or feces samples [5]: Neither desmosterol sulfate nor 25-hydroxycholesterol was detected
- relative observed intensity (ROI) in plasma ([6]; 2 hour postdose plasma): 37%
- % of total dose in feces ([6]; pools 0 to 168 hours post-dose): 1.9 % of total dose
- concentration at 2 h ([6]; Sprague Dawley, rat, 2 hour postdose plasma): 1230 ng/g

Molecule: desmosterol sulfate
- detection in plasma, urine, or feces samples [5]: Neither desmosterol sulfate nor 25-hydroxycholesterol was detected
- detection in plasma or feces samples [6]: not found

Molecule: C[C@H](CCCC(C)(C)O)[C@H]1CC[C@H]2[C@@H]3CC=C4C[C@@H](OS(=O)(=O)[O-])CC[C@]4(C)[C@H]3CC[C@]12C.[Na+] [25HC3S sodium]
- AUC0-12 [7, 11]: 496.7 ng·h/mL
- AUC0-last [7, 11]: 450.0 ng·h/mL
- AUCinf [7, 11]: 423.3 ng·h/mL
- CL/F [7, 11]: 118.11 L/h
- Cmax [7, 11]: 90.946 ng/mL
- T1/2 [7, 11]: 1.889 h
- Tmax [7, 11]: 2.834 h
- AUC0-12 [7, 12]: 528.0 ng·h/mL
- AUC0-last [7, 12]: 477.1 ng·h/mL
- AUCinf [7, 12]: 438.6 ng·h/mL
- CL/F [7, 12]: 122.35 L/h
- Cmax [7, 12]: 93.967 ng/mL
- T1/2 [7, 12]: 1.906 h
- Tmax [7, 12]: 3.008 h
- AUC0-12 [7, 13]: 597.8 ng·h/mL
- AUC0-last [7, 13]: 476.1 ng·h/mL
- AUCinf [7, 13]: 608.3 ng·h/mL
- CL/F [7, 13]: 82.19 L/h
- Cmax [7, 13]: 107.627 ng/mL
- T1/2 [7, 13]: 1.670 h
- Tmax [7, 13]: 2.305 h
- AUC0-12 [7, 14]: 623.1 ng·h/mL
- AUC0-last [7, 14]: 513.3 ng·h/mL
- AUCinf [7, 14]: 636.1 ng·h/mL
- CL/F [7, 14]: 85.29 L/h
- Cmax [7, 14]: 113.170 ng/mL
- T1/2 [7, 14]: 1.674 h
- Tmax [7, 14]: 2.408 h
- AUC0-12 [7, 15]: 1162.8 ng·h/mL
- AUC0-last [7, 15]: 1172.5 ng·h/mL
- AUCinf [7, 15]: 1181.2 ng·h/mL
- CL/F [7, 15]: 169.32 L/h
- Cmax [7, 15]: 255.698 ng/mL
- T1/2 [7, 15]: 1.719 h
- Tmax [7, 15]: 2.528 h
- AUC0-12 [7, 16]: 1175.9 ng·h/mL
- AUC0-last [7, 16]: 1185.7 ng·h/mL
- AUCinf [7, 16]: 1194.3 ng·h/mL
- CL/F [7, 16]: 171.25 L/h
- Cmax [7, 16]: 260.500 ng/mL
- T1/2 [7, 16]: 1.753 h
- Tmax [7, 16]: 2.673 h
- AUC0-12 [7, 17]: 1495.2 ng·h/mL
- AUC0-last [7, 17]: 1539.2 ng·h/mL
- AUCinf [7, 17]: 1411.8 ng·h/mL
- CL/F [7, 17]: 141.66 L/h
- Cmax [7, 17]: 318.582 ng/mL
- T1/2 [7, 17]: 2.196 h
- Tmax [7, 17]: 2.647 h
- AUC0-12 [7, 18]: 1541.0 ng·h/mL
- AUC0-last [7, 18]: 1581.6 ng·h/mL
- AUCinf [7, 18]: 1428.5 ng·h/mL
- CL/F [7, 18]: 143.19 L/h
- Cmax [7, 18]: 332.700 ng/mL
- T1/2 [7, 18]: 2.511 h
- Tmax [7, 18]: 2.906 h

Molecule: C[C@H](CCCC(C)(C)O)[C@H]1CC[C@H]2[C@@H]3CC=C4CC(OS(=O)(=O)O)CC[C@]4(C)[C@H]3CC[C@]12C (stereo partly shown) [[^14C]-25HC3S]
- terminal elimination phase T1/2 [8]: 27.3 h
- plasma AUClast ([8]; radioactivity): 96,400 h.ng equiv./g
- dose recovered in urine, feces, and cage rinse [9]: approximately 94.5%
- recovered radioactivity in feces [9]: 94.2%
- plasma:whole blood AUClast ratio [10]: 1.12
- skin, thymus, prostate, and pituitary tissue concentrations [10]: < 3000 ng equiv./g
- tissue Tmax [10]: ≤ 6 h
- tissue distribution by QWBA [10]: broadly distributed and detected by quantitative whole body autoradiography in all tissues except the eye (lens)
- uveal tract and brain concentrations [10]: approximately 1000 ng equiv./g
- whole blood AUClast [10]: 127,000 h.ng equiv./g
- tissue:plasma ratio, adrenal gland ([10]; calculated using AUClast): 6.64
- tissue:plasma ratio, liver ([10]; calculated using AUClast): 6.96
- tissue:plasma ratio, small intestine (wall) ([10]; calculated using AUClast): 15.4
